Measurements: US5726162A (priority 1996, dated 1998)
Like-named read-outs stand apart in the source and are kept apart here.

Experiments:
[1] = test system: Magnaporthe grisea (Pyricularia oryzae); test: whole plant or invertebrate; format: in vivo, Magnaporthe grisea (Pyricularia oryzae) on M201 rice plants; settings: Pyricularia oryzae, 144 h, read-out: % Control RB
fungal mycelium = test: organism not typed; format: cell-based; settings: read-out: % growth inhibition
[2] = test system: Thanatephorus cucumeris (Rhizoctonia solani); test: In vivo test b) Rice Sheath Blight (RSB), 24 hour preapplication protectant, % control; settings: read-out: % Control RSB
Protocol: Compounds were tested at 200 ppm as a twenty-four hour preapplication protectant test prior to inoculation.
b) Rice Sheath Blight (RSB)
Thanatephorus cucumeris (Rhizoctonia solani) mycelia were grown for six days in potato dextrose broth in shake culture. Drained mycelial mats were blended with an approximately equal weight of rice flour and five parts water. This slurry was dispensed onto the soil surface of pots containing rice seedlings previously treated with experimental compounds. The plants were placed in a mist chamber at 25°-28° C. for 48 hours. Following two more days at 25° C. and 70-90% relative humidity the plants were evaluated for percent disease control compared to check plants.

fungal inoculum = test: organism not typed; format: cell-based; settings: read-out: % growth inhibition
Candida albicans = test: Activity against Candida albicans in microtiter plates, % control of growth; format: cell-based
Protocol: The activity against Candida albicans was determined using the following test protocol.
Conidia and mycelium from the Candida albicans culture maintained on potato dextrose agar plates were lightly scraped off into yeast extract-dextrose broth (YDB) so that mostly conidia was used as inoculum. The conidial suspsension was strained through a double layer of cheesecloth to remove mycelial clumps. The inoculum mixture was placed in microtiter plates using a 12-tipped pipet. 175 microliters were placed in each well of the microliter plates and the plates were placed in the refrigerator overnight. There were two replications.
The compounds to be tested were dissolved in 1:1 acetone:methanol and 100 ppm of the compound solution were placed in a well of the prepared microtiter plates.
The microtiter plates were incubated for 7 days at room temperature after addition of the compounds. Percent control was visually estimated using a microtiter plate reading mirror. Readings were made at 1, 2, 3, and/or 7 days after treatment.

[3] = 24 h, 1 day after treatment, read-out: % control of growth +1
[4] = 48 h, 2 days after treatment, read-out: % control of growth +2
[5] = 72 h, 3 days after treatment, read-out: % control of growth +3

| SMILES | pest or weed control at 200 ppm [1] | pest or weed control at 200 ppm ([2]; 200 ppm, protectant) | other results |
| --- | --- | --- | --- |
| CCC#CCN1N=C(c2ccc(-c3ccccc3)cc2)CCC1=O [Compound 79] | 100% | 75% | inhibition at 50 ppm (fungal mycelium): 17% |
| CCC#CCn1nc(-c2ccc(Cl)cc2)c2ccccc2c1=O [Compound 154] | 50% | 0% | inhibition at 10 ppm (fungal mycelium): 16% |
| CCC#CCN1N=C(c2ccc(Cl)cc2)CC=C1n1cncn1 [Compound 159] | 0% | 0% | inhibition at 1 ppm (fungal mycelium): 100% |
| O=C1CCC(c2ccc(Cl)cc2)=NN1C(=O)c1ccccc1 [Compound 16] | 0% | 50% | inhibition at 50 ppm (fungal inoculum): 12.7% |
| CC#CCN1N=C(c2ccccc2)CCC1=O [Compound 9] | 0% | 0% | inhibition at 100 ppm (fungal inoculum): 94.4% |
| CCC#CCN1N=C2c3ccc(Cl)cc3C(C)C2CC1=O (centres unmarked) [Compound 155] | 100% | 90% | inhibition at 10 ppm (fungal mycelium): 92% |
| CC#CCN1N=C(c2ccc(F)cc2)CCC1=O [Compound 13] | 50% | 50% | inhibition at 10 ppm (fungal inoculum): 87% |
| CC#CCn1nc(-c2ccc(Cl)cc2)ccc1=O [Compound 108] | 95% | 50% | inhibition at 5 ppm (fungal inoculum): 100% |
| CCC#CCn1nc(-c2ccc(Br)cc2)ccc1=O [Compound 121] | 95% | – | inhibition of growth at 100 ppm (Candida albicans; [3]): 100%; inhibition of growth at 100 ppm (Candida albicans; [4]): 100%; inhibition of growth at 100 ppm (Candida albicans; [5]): 100%; inhibition at 1 ppm (fungal mycelium): 100% |
| CCC#CCN1N=C(c2ccc3ccccc3n2)CCC1=O [Compound 229, 6-(2-quinoline)-2-(2'-pentynyl)-4,5-dihydropyridazinone] | – | – | inhibition of growth at 100 ppm (Candida albicans; [3]): 100%; inhibition of growth at 100 ppm (Candida albicans; [4]): 100%; inhibition of growth at 100 ppm (Candida albicans; [5]): 100%; inhibition at 5 ppm (fungal mycelium): 100% |
| CCC#CCn1nc(-c2ccc(F)c(Cl)c2)ccc1=O [Compound 129] | 0% | 0% | inhibition at 1 ppm (fungal mycelium): 100% |
| CC#CCN1N=C(c2cccnc2)CCC1=O [Compound 132] | 0% | 0% | inhibition at 200 ppm (fungal mycelium): 91.8% |
| CC#CCN1N=C(c2ccc(C)cc2)CCC1=O [Compound 18] | 0% | 0% | inhibition at 5 ppm (fungal inoculum): 88.4% |
| CC#CCN1N=C(C=Cc2ccc(C(C)(C)C)cc2)CCC1=O [Compound 107] | 0% | 0% | inhibition at 200 ppm (fungal mycelium): 83.7% |
| CC=CCN1N=C(c2ccc(Cl)cc2)CCC1=O [Compound 8] | 0% | 0% | inhibition at 100 ppm (fungal inoculum): 96.2% |
| COc1ccc(C2=NN(CCCO)C(=O)CC2)cc1 [Compound 2] | 0% | 0% | inhibition at 100 ppm (fungal inoculum): 0% |
| CCCCN1N=C(c2ccc(Cl)cc2)CCC1=O [Compound 7] | 0% | 0% | inhibition at 100 ppm (fungal inoculum): 94.4% |
| CC#CCN1N=C(c2ccc(OC)c(F)c2)CCC1=O [Compound 20] | 0% | 0% | inhibition at 10 ppm (fungal inoculum): 100% |
| CCC#CCn1nc(-c2ccc(Br)c(F)c2)ccc1=O [Compound 127] | 0% | – | inhibition of growth at 100 ppm (Candida albicans; [3]): 100%; inhibition of growth at 100 ppm (Candida albicans; [4]): 100%; inhibition of growth at 100 ppm (Candida albicans; [5]): 100%; inhibition at 1 ppm (fungal mycelium): 100% |
| CC(C)(C)N1N=C(c2ccc(Cl)cc2)CCC1=O [Compound 15, 6-(4-chlorophenyl)-4,5-dihydro-2-t-butylpyridazinone] | 0% | 50% | inhibition at 50 ppm (fungal inoculum): 37.1% |
| O=C1CCC(c2ccc(Cl)c(Cl)c2)=NN1CCCO [Compound 5] | 0% | 50% | inhibition at 100 ppm (fungal inoculum): 75% |
| CCC#CCN1N=C(c2ccc(C)cc2)CCC1=O [Compound 80] | 99% | – | inhibition at 2.5 ppm (fungal mycelium): 100%; pest or weed control at 200 ppm [2]: 0% |
